Numbers after ± are expanded uncertainties.
How the values were obtained:
[1] = refractive index (Na D-line) (dimensionless); settings: 298.15 K; 101 kPa; Liquid; Standard Abbe refractometry
[2] = 298.15 K; 101 kPa; Liquid; Vibrating tube method

| Structure (SMILES) | refractive index [1] | mass density [2] [kg/m3] |
| --- | --- | --- |
| CCCCCC [hexane] | 1.37241 ± 0.00037 | 655.2 ± 0.3 |
| CCCC[N+](C)(CCCC)CCCC.O=S(=O)([N-]S(=O)(=O)C(F)(F)F)C(F)(F)F [tributylmethylammonium bis((trifluoromethyl)sulfonyl)imide] | 1.42614 ± 0.00032 | 1261.3 ± 0.2 |
| CCCCCCC [heptane] | 1.38529 ± 0.00037 | 679.6 ± 0.3 |
| CCCC[N+](C)(C)C.O=S(=O)([N-]S(=O)(=O)C(F)(F)F)C(F)(F)F [butyltrimethylammonium bis(trifluoromethylsulfonyl)imide] | 1.40806 ± 0.00031 | 1393 ± 0.2 |
| CCO [ethanol] | 1.35936 ± 0.00037 | 785.9 ± 0.2 |
| CO [methanol] | 1.32636 ± 0.00037 | 786.9 ± 0.2 |

From the NIST ThermoML archive (doi:10.1016/j.jct.2013.08.023)
